Reference: patent US11499981B2, “Methods of identifying modulators of SAMTOR-GATOR1 interaction and use of same to modulate mTORC1” (Whitehead Institute for Biomedical Research, priority 2017, dated 2022)

What was measured:
human FLAG-SAMTOR = biological target: T1, human FLAG-SAMTOR (Homo sapiens, UniProt Q1RMZ1); assay: Equilibrium [3H]SAM binding assay and competition binding assay with purified FLAG-SAMTOR
T1 construct: made in house; host or cells: HEK-293F suspension cells, transient transfection; anti-FLAG IP, FLAG-peptide elution, size-exclusion chromatography
T1 sequence (Q1RMZ1 1-405): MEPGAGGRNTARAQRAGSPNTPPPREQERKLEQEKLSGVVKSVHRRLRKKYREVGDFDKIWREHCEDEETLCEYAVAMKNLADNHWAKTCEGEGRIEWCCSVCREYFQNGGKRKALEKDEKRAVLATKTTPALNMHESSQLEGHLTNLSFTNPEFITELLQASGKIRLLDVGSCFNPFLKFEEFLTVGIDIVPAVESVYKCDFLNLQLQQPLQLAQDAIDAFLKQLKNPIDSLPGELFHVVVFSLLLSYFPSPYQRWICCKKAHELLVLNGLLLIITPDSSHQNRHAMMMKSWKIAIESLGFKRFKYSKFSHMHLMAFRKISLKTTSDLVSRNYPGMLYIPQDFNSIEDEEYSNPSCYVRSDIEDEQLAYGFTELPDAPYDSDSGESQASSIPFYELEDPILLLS
Procedure: For radiolabelled SAM binding assays using FLAG-tagged wild-type SAMTOR (FIG. 3B), suspension HEK-293F cells were seeded at 2.5 million cells/ml, and the pRK5-FLAG-SAMTOR cDNA was transfected using polyethylenimine. 72-96 hours after transfection, cells were rinsed one time in cold PBS and lysed in 1% Triton lysis buffer (1% Triton, 40 mM Hepes pH 7.4, 2.5 mM MgCl2 and 1 tablet of EDTA-free protease inhibitor [Roche] per 25 ml buffer). Following anti-FLAG immunoprecipitation, the beads were washed 4 times with lysis buffer containing 500 mM NaCl and the protein was eluted in FLAG Elution Buffer (40 mM Hepes pH 7.4, 150 mM NaCl, 2.5 mM MgCl2 and 0.5 mg/ml FLAG peptide) for 1 hour at 4° C. […] Each sample was mixed well and then 15 μl aliquots were separately quantified using a TriCarb scintillation counter (Perkin Elmer). This process was repeated in pairs for each sample, to ensure similar incubation and wash times for all samples analyzed across different experiments. The affinities for SAM and SAH of human FLAG-SAMTOR were determined by first normalizing the bound [^3H]-labeled SAM concentrations across three separate binding assays performed with varying amounts of cold SAM or SAH. […]

[1] = biological target: T2, SAMTOR-GATOR1-KICSTOR complex (Homo sapiens, UniProt Q1RMZ1); assay: In vitro GATOR1-SAMTOR dissociation assay (immunopurified complex, immunoblotting); assay type: biochemical; settings: for disruption of the interaction between SAMTOR and GATOR1 (FIG. 3D): 100 μM, added to FLAG-Depdc5 immunoprecipitates; for disruption of the interaction of SAMTOR with GATOR1-KICSTOR: added directly to the immunopurified complex kept at 4° C.
T2 construct: FLAG-immunoprecipitates were prepared from the endogenously FLAG-tagged Depdc5 HEK-293T cells; endogenous in cells; host or cells: HEK-293T cells with endogenously FLAG-tagged Depdc5; anti-FLAG immunoprecipitate on beads
T2 sequence (Q1RMZ1 1-405): T1 sequence (Q1RMZ1 1-405)
Procedure: HEK-293T cells stably expressing endogenous FLAG-tagged Depdc5 were lysed and subjected to anti-FLAG immunoprecipitations as described above. The GATOR1-SAMTOR complexes immobilized on the FLAG beads were washed twice in lysis buffer with 250 mM NaCl, and then incubated for 25 minutes in 0.3 ml of cytosolic buffer (0.1% Triton, 40 mM HEPES pH7.4, 10 mM NaCl, 150 mM KCl, 2.5 mM MgCl2) with the indicated concentrations of SAM or SAH in the cold. The amount of GATOR1, SAMTOR, GATOR2, and KICSTOR that remained bound was assayed by SDS-PAGE and immunoblotting as described previously.

[2] = biological target: T3, human FLAG-SAMTOR (SAMTOR, C7orf60; wild-type, FLAG-tagged, expressed in HEK-293F cells) (Homo sapiens, UniProt Q1RMZ1); assay: Radiolabelled SAM binding assay: competition of unlabeled SAH with [3H]SAM for purified FLAG-SAMTOR (FIG. 3B); settings: 5 μM [3H]SAM competed with unlabeled SAH; 5 μg purified wild-type FLAG-SAMTOR on anti-FLAG beads, 1 h on ice, pH 7.4; Ki=IC50/(1+([3H]SAM)/Kd)
T3 construct: made in house; host or cells: HEK-293F (suspension), transient transfection of pRK5-FLAG-SAMTOR; anti-FLAG purification and size-exclusion chromatography
T3 sequence (Q1RMZ1 1-405): T1 sequence (Q1RMZ1 1-405)
Description: FIGS. 3A-3G depict S-adenosylmethionine binds SAMTOR to disrupt its interaction with GATOR1 and KICSTOR. FIG. 3A provides a schematic of the human SAMTOR protein indicating the Class I Rossmann fold methyltransferase domain. Shown is an alignment of partial sequences of this domain from SAMTOR in indicated species. Amino acid positions are colored from white to blue in order of increasing sequence similarity. Orange dots denote the G172 and D190 residues of human SAMTOR. […] FLAG-SAMTOR protein prepared from HEK-293F cells transiently expressing the FLAG-SAMTOR cDNA was further purified by size-exclusion chromatography. The protein was analyzed by SDS-PAGE followed by Coomassie blue staining. Binding assays were performed with purified FLAG-SAMTOR incubated with 5 μM [^3H]SAM and indicated concentrations of unlabeled SAM or SAH. Values for each point are mean±SD of three technical replicates from one representative experiment. The experiment was performed twice. […] FLAG-immunoprecipitates and cell lysates were analyzed by immunoblotting for the levels of the indicated proteins. […] The experiment was performed and analyzed as in (FIG. 3C). […] HA-immunoprecipitates and cell lysates were analyzed as (FIG. 3C). […] FLAG-immunoprecipitates and cell lysates were analyzed by immunoblotting for the phosphorylation states and levels of the indicated proteins. […]

[3] = biological target: T4, SAMTOR-GATOR1-KICSTOR interaction in HEK-293T cells (Homo sapiens, UniProt Q1RMZ1); assay: Co-immunoprecipitation of GATOR1 with HA-SAMTOR from methionine-starved and restimulated cells; assay type: cell-based; settings: HEK-293T starved of methionine 2 hours
T4 construct: expressed in transfected cells; host or cells: HEK-293T cells transiently transfected with HA-SAMTOR in pRK5 (25 ng)
T4 sequence (Q1RMZ1 1-405): T1 sequence (Q1RMZ1 1-405)
Procedure: Cell volumes were determined by Coulter counter and used to calculate whole cell concentrations. […] HA-immunoprecipitates and cell lysates were analyzed by immunoblotting for the levels of the indicated proteins. […] Cell lysates were analyzed by immunoblotting for the phosphorylation states and the levels of the indicated proteins. […] Wild-type or SAMTOR-deficient HEK-293T cells were starved for the indicated amino acid for 2 hours. Cell lysates were analyzed by immunoblotting for the phosphorylation states and the levels of the indicated proteins. […] SAMTOR-deficient or control HEK-293T cells were treated as indicated for 2 hours prior to processing for immunofluorescence detection of mTOR and the lysosomal marker LAMP2. […] FLAG-immunoprecipitates and cell lysates were analyzed by immunoblotting for the phosphorylation states and the levels of the indicated proteins. […] Cell lysates were analyzed by immunoblotting for the phosphorylation states and the levels of the indicated proteins. […] Cell lysates were analyzed by immunoblotting for the phosphorylation states and the levels of the indicated proteins.
For anti-FLAG immunoprecipitations, anti-FLAG M2 Affinity Gel (SIGMA A2220) was washed with lysis buffer three times then resuspended to a ratio of 50:50 affinity gel to lysis buffer. […] Denatured samples were resolved by 8%-12% SDS-PAGE, and analyzed by immunoblotting.

mTORC1 = mTORC1 signaling in methionine-starved cells (immunoblotting of mTORC1 substrate phosphorylation); assay type: cell-based, human; settings: for activation of mTORC1 after loss of MAT2A: MAT2A dox-off HEK-293T cells, 30 ng/mL doxycycline for 50 hours
Procedure: Cell volumes were determined by Coulter counter and used to calculate whole cell concentrations. […] HA-immunoprecipitates and cell lysates were analyzed by immunoblotting for the levels of the indicated proteins. […] Cell lysates were analyzed by immunoblotting for the phosphorylation states and the levels of the indicated proteins. […] Wild-type or SAMTOR-deficient HEK-293T cells were starved for the indicated amino acid for 2 hours. Cell lysates were analyzed by immunoblotting for the phosphorylation states and the levels of the indicated proteins. […] SAMTOR-deficient or control HEK-293T cells were treated as indicated for 2 hours prior to processing for immunofluorescence detection of mTOR and the lysosomal marker LAMP2. In all images, insets represent selected fields magnified 3.07× as well as their overlays. Scale bar represents 10 μm. […] SAMTOR-null cells were co-transfected with a cDNA for FLAG-S6K1 along with the indicated HA-tagged cDNAs and cells were treated as in (FIG. 4C) prior to preparing lysates and FLAG-immunoprecipitates. FLAG-immunoprecipitates and cell lysates were analyzed by immunoblotting for the phosphorylation states and the levels of the indicated proteins. […] S2R+ cells were transfected with dsRNAs targeting the indicated mRNAs and starved for 1 hour for the indicated amino acid. Cell lysates were analyzed by immunoblotting for the phosphorylation states and the levels of the indicated proteins. […] MAT2A dox-off HEK-293T cells were treated with 30 ng/mL doxycycline for 50 hours prior to starving them as in (FIG. 4C). Cell lysates were analyzed by immunoblotting for the phosphorylation states and the levels of the indicated proteins.
Cells were rinsed with cold PBS and lysed in lysis buffer (1% Triton, 10 mM β-glycerol phosphate, 10 mM pyrophosphate, 40 mM Hepes pH 7.4, 2.5 mM MgCl2 and 1 tablet of EDTA-free protease inhibitor [Roche] (per 25 ml buffer)). […] Cell lysate samples were prepared by addition of 5× sample buffer (0.242 M Tris, 10% SDS, 25% glycerol, 0.5 M DTT, and bromophenol blue), resolved by 8%-16% SDS-PAGE, and analyzed by immunoblotting.

SMILES | binding to SAMTOR in competition binding assay (human FLAG-SAMTOR; 5 μM [3H]SAM with unlabeled competitor) | disruption of the interaction between SAMTOR and GATOR1 (FIG. 3D) [1] | disruption of the interaction of SAMTOR with GATOR1-KICSTOR [1] | Ki [2] [µM] | SAMTOR-GATOR1-KICSTOR interaction in cells after re-addition ([3]; restimulated 20 minutes with 100 μM methionine) | activation of mTORC1 after loss of MAT2A (mTORC1) | Kd (human FLAG-SAMTOR; 5 μM [3H]SAM with unlabeled SAM, read-out: dissociation constant of SAM for SAMTOR) [µM] | SAMTOR-GATOR1-KICSTOR interaction in cells after re-addition ([3]; restimulated 20 minutes with 1 mM SAM) | mTORC1 signaling after addition to methionine-starved cells (mTORC1; methionine-starved HEK-293T cells (FIG. 4H))
Nc1ncnc2c1ncn2[C@@H]1O[C@H](CSCC[C@H](N)C(=O)O)[C@@H](O)[C@H]1O [SAH, S-adenosylhomocysteine] | can also bind | disrupt the interaction | disrupted the interaction | ~4.6 |  |  |  |  | 
CSCC[C@H](N)C(=O)O [methionine] |  |  |  |  | reduced the interaction to baseline levels | greatly attenuated |  |  | 
C[S+](CC[C@H](N)C(=O)[O-])C[C@H]1O[C@@H](n2cnc3c(N)ncnc32)[C@H](O)[C@@H]1O (stereo partly drawn) [SAM, S-adenosylmethionine] |  | disrupt the interaction | disrupted the interaction |  |  | largely intact | ~7 | reduced the interaction to baseline levels | reactivated mTORC1 signaling
